Reference: article PMC9088798, “An Approach to Derive Functional Peptide Inhibitors of Transcription Factor Activity” (JACS Au, 2022)

Columns and labels:
cJun bZIP = assay: CD thermal denaturation of heterodimer with cJun bZIP; format: binding, human
Method: Figure 5 TBS winner peptide HingeW binds cJun preferentially over A-FosW. CD spectra (20 °C) show the binding of cJun to either (A) HingeW or (B) A-FosW. […] However, the effect is larger for HingeW, indicating a greater increase in peptide helicity. Similarly, the thermal denaturation of cJun bound to either (C) HingeW or (D) A-FosW is right-shifted from the average of the component peptide denaturation profiles. […] CD dimer exchange spectra show (E) an increase in helicity when HingeW is mixed with the A-FosW/cJun heterodimer as the HingeW exchanges with the A-FosW due to the binding preference of cJun for HingeW and (F) no shift from the average is observed when A-FosW is mixed with the HingeW/cJun heterodimer, indicating no change in dimer populations. Arrows are shown to highlight the shift from the average at 190 and 222 nm. In all experiments, the total sample peptide concentration was fixed to 10 μM, using equimolar concentrations of each component peptide to remove concentration-dependent effects. […]
(§1) µM) alongside ampicillin, kanamycin and chloramphenicol to maintain the required plasmids, and IPTG (1 mM) to induce protein expression. The library transformants were […]
(§2) however a lower stringency is used initially before selection is increased in later steps.
(§3) Colonies from this first round of selection were pooled and serially grown in liquid culture at starting OD600 of 0.05 and grown at 37°C with shaking at 200 rpm until the OD600 […]
(§4) increased to the optimum 4 µM in subsequent passages. Bacteria containing the most effective functional antagonists were expected to produce higher levels of TRE-mDHFR which provides a growth advantage, and these will dominate the culture. At each passage step, a sample of the culture was plated on LB agar (supplemented with antibiotics to maintain plasmids) to select and sequence individual colonies, and a DNA pool was also sequenced. This allows the occurrence of library members to be monitored as winner sequences are selected for. […]

TRE DNA = assay: CD control, interaction with TRE DNA; format: binding; settings: peptide 50 µM, TRE DNA 5 µM, CD spectra 260-320 nm
Method: as §1, §2, §3
as §4, with “for. Assay Validation experiments utilised a modified assay methodology whereby overnight cultures from glycerol stocks of the Control Strains (Figure S6) were diluted to OD600=0.5 and 50 µL was plated on a selective M9 minimal” for “for.”
Circular Dichroism (CD): An Applied Photophysics Chirascan was used for CD measurements, with a 200 µL sample in a 1 mm path length CD cell. […]

[1] = system: cJun bZIP / TRE sites in TRE-mDHFR gene; assay: TBS liquid culture growth competition HingeW vs A-FosW; format: cell-based, human cJun, expressed in E. coli; settings: equal numbers of cells with A-FosW or HingeW, selective M9 media, after three passages, DNA sequencing
Method: During the TBS library screening process, E. coli were transformed with the pooled DNA plasmid library such that each cell expressed a given member. Cells were plated onto M9 selective media and incubated until colonies expressing TBS active library members had formed. These colonies were pooled, and repeated liquid culture passages were undertaken under selective conditions to compete for library members against each other, enriching for the most TBS active sequences. At each stage of the assay, DNA sequencing was used to monitor the presence of TBS active sequences in the culture and inform on which residues were being selected at each position until one discrete DNA sequence was detected in the culture, referred to as HingeW (Figure 4). The residues selected in the winning HingeW peptide were universally found to be either acidic (D/E) or hydrophobic (V). Six of nine residues selected deviated from the parental A-FosW sequence with both V (E-to-V at e4 and c4, Q-to-V at f4) and E (L-to-E at a4, Q-to-E at e5, A-to-E at f5) newly selected in three positions. […]
increased to the optimum 4 µM in subsequent passages. […] This allows the occurrence of library members to be monitored as winner sequences are selected for. […]

## LEQRAEELARENEELEKEAEELEQELDELQAEIEQLEERNYALRKEIEDLQKQLEKL [A-FosW, N-terminal AS and C-terminal GAP caps, 6xHis-tagged]
cJun bZIP; 222 nm thermal denaturation
  smaller initial transition of heterodimer with cJun (double transition): ~30 °C
cJun bZIP; 222 nm, 1-90 °C at 1 °C increments, total peptide 10 μM equimolar, pH 7.4, two-state model
  Tm of heterodimer with cJun: 69.9 °C
cJun bZIP; heterodimer Tm minus average of component peptide denaturation profiles, for HingeW an estimate because homodimer Tm undeterminable
  ΔTm from component average (heterodimer with cJun): 27.5 °C
TRE DNA
  interaction with TRE DNA: no interaction with DNA
[1]
  outcome of direct competition in liquid culture: outcompeted
